According to patent US20060211760A1, “Indolamide derivatives which possess glycogen phosphorylase inhibitory activity” (AstraZeneca AB, priority 2003, published 2006):

Assays:
conscious dogs = settings: following a glucagon challenge; cited from earlier work
db/db and ob/ob mice = db/db and ob/ob mice following treatment; cited from earlier work
hepatocytes = settings: cited from earlier work
[1] = target: T1, Human recombinant liver glycogen phosphorylase a (hrl GPa) (Homo sapiens, UniProt P06737); experiment: glycogen phosphorylase inhibition, multienzyme coupled assay of glucose-1-phosphate production from glycogen; format: biochemical; settings: hrl GPa 20 nM, 6 hours at 30° C., 1% DMSO
T1 sequence (P06737 1-847): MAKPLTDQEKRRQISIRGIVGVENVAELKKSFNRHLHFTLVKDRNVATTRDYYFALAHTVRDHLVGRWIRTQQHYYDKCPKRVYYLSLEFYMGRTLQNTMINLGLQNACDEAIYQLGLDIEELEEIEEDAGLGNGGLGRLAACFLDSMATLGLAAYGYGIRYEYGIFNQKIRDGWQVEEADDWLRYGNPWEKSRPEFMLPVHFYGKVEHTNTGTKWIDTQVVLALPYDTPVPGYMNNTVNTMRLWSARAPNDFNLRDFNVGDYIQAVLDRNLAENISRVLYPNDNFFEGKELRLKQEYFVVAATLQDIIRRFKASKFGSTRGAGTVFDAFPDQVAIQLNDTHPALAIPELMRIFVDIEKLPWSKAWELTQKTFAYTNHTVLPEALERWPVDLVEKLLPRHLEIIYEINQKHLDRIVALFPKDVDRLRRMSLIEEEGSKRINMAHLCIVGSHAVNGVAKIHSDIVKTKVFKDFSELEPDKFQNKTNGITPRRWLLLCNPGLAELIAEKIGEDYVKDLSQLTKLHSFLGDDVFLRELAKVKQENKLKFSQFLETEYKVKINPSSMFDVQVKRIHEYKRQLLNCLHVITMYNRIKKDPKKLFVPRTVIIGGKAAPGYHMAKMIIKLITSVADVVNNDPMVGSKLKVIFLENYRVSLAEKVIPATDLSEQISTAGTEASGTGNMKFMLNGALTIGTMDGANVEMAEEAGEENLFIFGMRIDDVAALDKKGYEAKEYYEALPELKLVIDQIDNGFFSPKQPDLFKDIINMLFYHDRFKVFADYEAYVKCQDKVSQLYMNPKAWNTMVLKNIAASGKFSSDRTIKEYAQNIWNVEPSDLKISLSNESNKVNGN
Protocol: The activity of the compounds is determined by measuring the inhibitory effect of the compounds on glycogen degradation, the production of glucose-1-phosphate from glycogen is monitored by the multienzyme coupled assay, as described in EP 0 846 464 A2, general method of Pesce et al (Pesce, M A, Bodourian, S H, Harris, R C, and Nicholson, J F (1977) Clinical Chemistry 23, […]). The reactions were in 384well microplate format in a volume of 50 μl. The change in fluorescence due to the conversion of the co-factor NAD to NADH is measured at 340 nm excitation, 465nm emission in a Tecan Ultra Multifunctional Microplate Reader. The reaction is in 50 mM HEPES, 3.5 mM KH2PO4, 2.5 mM MgCl2, 2.5 mM ethylene glycol-bis(b-aminoethyl ether) N,N,N′,N′-tetraacetic acid, 100 mM KCl, 8 mM D-(+)-glucose pH7.2, containing 0.5 mM dithiothreitol, the assay buffer solution. Human recombinant liver glycogen phosphorylase a (hrl GPa) 20 nM is pre-incubated in assay buffer solution with 6.25 mM NAD, 1.25 mg type m glycogen at 1.25 mg ml^−1 the reagent buffer, for 30 minutes. […] The non-inhibited activity of GPa is measured in the presence of 10 μl 5% DMSO in assay buffer solution and maximum inhibition measured in the presence of 5 mgs ml^−1 N-ethylmaleimide. […] Relative Fluoresence Units (RFUs) are measured at 340 nm excitation, 465 nm emission. […]

Structure (SMILES)	arterial plasma glucose (conscious dogs)	hepatic glucose output (conscious dogs)	plasma glucose concentration (db/db and ob/ob mice)	glucagon stimulated glycogenolysis (hepatocytes)	glucose output (hepatocytes)	IC50 [1] [nM]
CCN1C(C)=C(C(=O)OC(C)C)C(c2ccccc2Cl)C2=C1COC2=O (stereo not drawn) [Bay R 3401]	reduced significantly	reduced significantly				
CN(C)C(=O)[C@H](O)[C@H](Cc1ccccc1)NC(=O)c1cc2cc(Cl)ccc2[nH]1 [CP91149]			reduced, in a dose related manner	reduce	reduce	
O=C(N[C@@H](Cc1ccc(F)cc1)C(=O)N1CCC(O)CC1)c1cc2cc(Cl)ccc2[nH]1 [CP320626]			reduced, in a dose related manner	reduce	reduce	
O=C(N[C@@H]1Cc2ccccc2[C@H]1CO)c1cc2cc(Cl)ccc2[nH]1 [Example 2, 5-Chloro-N-[(1R,2R)-1-(hydroxymethyl)-2,3-dihydro-1H-inden-2-yl]-indole-2-carboxamide]						868
